In the supplement of paper PMC4862054:

How the values were obtained:
Test in all cases: drug sensitivity score (DSS), CellTox Green (DSS (AUC-based score)); higher = stronger drug effect (viability inhibition or cytotoxicity); extreme values may be limits of the assay
Conditions in all cases: incubation time: 72 h
[1] = tested on: BT-474
Procedure, shortened: (§1)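 The area under the fitted dose-response curve was used to calculate the drug sensitivity score. Cells from breast cancer lines were incubated for 72 h in 384-well plates with compound at 5 concentrations spaced 10-fold over a 10,000-fold range specific to each compound. Plates were read for CellTox Green and then CellTiter-Glo, and normalised to 0.1 % DMSO and a positive kill control.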

[2] = tested on: CAL-120
Procedure, shortened: as §1

[3] = tested on: CAL-148
Procedure, shortened: as §1

[4] = tested on: CAL-51
Procedure, shortened: as §1

[5] = tested on: CAL-85-1
Procedure, shortened: as §1

[6] = tested on: DU-4475
Procedure, shortened: as §1

[7] = tested on: HCC1143
Procedure, shortened: as §1

[8] = tested on: HCC1599
Procedure, shortened: as §1

[9] = tested on: HCC1937
Procedure, shortened: as §1

[10] = tested on: HDQ-P1
Procedure, shortened: as §1

[11] = tested on: Hs578T
Procedure, shortened: as §1

[12] = tested on: MCF-10A
Procedure, shortened: as §1

[13] = tested on: MDA-MB-231
Procedure, shortened: as §1

[14] = tested on: MDA-MB-436
Procedure, shortened: as §1

[15] = tested on: MDA-MB-453
Procedure, shortened: as §1

[16] = tested on: MDA-MB-468
Procedure, shortened: as §1

[17] = tested on: MFM-223
Procedure, shortened: as §1

[18] = tested on: BT-549
Procedure, shortened: as §1

**Q.** How did the drug sensitivity score [1] turn out when CCn1c(C(=O)N(C2CC2)C2CC2)cc2c3c(ncn3C)c(Nc3cc(C)n(C)n3)nc21 was run?
**A.** 0

**Q.** And the drug sensitivity score [2]?
**A.** 0

**Q.** And the drug sensitivity score [3]?
**A.** 0

**Q.** And the drug sensitivity score [4]?
**A.** 0

**Q.** What about the drug sensitivity score [5] of the same molecule?
**A.** 0

**Q.** What about the drug sensitivity score [6] of the same molecule?
**A.** 0

**Q.** What about the drug sensitivity score [7] of the same molecule?
**A.** 1.62

**Q.** What about the drug sensitivity score [8] of the same molecule?
**A.** 0

**Q.** What about the drug sensitivity score [9] of the same molecule?
**A.** 3.5

**Q.** What about the drug sensitivity score [10] of the same molecule?
**A.** 0

**Q.** And the drug sensitivity score [11]?
**A.** 0

**Q.** And the drug sensitivity score [12]?
**A.** 0

**Q.** And the drug sensitivity score [13]?
**A.** 0

**Q.** And the drug sensitivity score [14]?
**A.** 0

**Q.** And the drug sensitivity score [15]?
**A.** 0

**Q.** What about the drug sensitivity score [16] of the same molecule?
**A.** 1.81

**Q.** What about the drug sensitivity score [17] of the same molecule?
**A.** 0

**Q.** What does the source list for COc1ccc(S(=O)(=O)Nc2cccnc2Nc2ccc(O)cc2)cc1 [ABT-751]?
**A.** drug sensitivity score [1]: 0; drug sensitivity score [18]: 10.2; drug sensitivity score [2]: 0.145; drug sensitivity score [3]: 0; drug sensitivity score [4]: 1.79; drug sensitivity score [5]: 12; drug sensitivity score [6]: 0; drug sensitivity score [7]: 0; drug sensitivity score [8]: 0; drug sensitivity score [9]: 0; drug sensitivity score [10]: 0; drug sensitivity score [11]: 7.06; drug sensitivity score [12]: 4; drug sensitivity score [13]: 8.51; drug sensitivity score [14]: 9.27; drug sensitivity score [15]: 0; drug sensitivity score [16]: 4.39; drug sensitivity score [17]: 4.05

**Q.** Which results are given for CN[C@@H](C)C(=O)N[C@H]1CN(C(=O)CC(C)C)CC[C@H]2CC[C@@H](C(=O)NC(c3ccccc3)c3ccccc3)N2C1=O [AT-406]?
**A.** drug sensitivity score [1]: 0.17; drug sensitivity score [18]: 8.86; drug sensitivity score [4]: 0; drug sensitivity score [5]: 22.9; drug sensitivity score [6]: 0; drug sensitivity score [7]: 0; drug sensitivity score [8]: 0; drug sensitivity score [9]: 0; drug sensitivity score [10]: 4.26; drug sensitivity score [11]: 0; drug sensitivity score [12]: 0; drug sensitivity score [13]: 25.5; drug sensitivity score [14]: 0; drug sensitivity score [15]: 0; drug sensitivity score [16]: 0; drug sensitivity score [17]: 0

**Q.** For Cc1cc(Nc2nc(N[C@@H](C)c3ncc(F)cn3)ncc2Cl)[nH]n1 [AZD1480], which drug sensitivity score [1] is on record?
**A.** 0

**Q.** And the drug sensitivity score [18]?
**A.** 0.354

**Q.** What about the drug sensitivity score [2] of the same molecule?
**A.** 0

**Q.** And the drug sensitivity score [3]?
**A.** 0

**Q.** What about the drug sensitivity score [4] of the same molecule?
**A.** 0

**Q.** And the drug sensitivity score [5]?
**A.** 0

**Q.** And the drug sensitivity score [6]?
**A.** 0

**Q.** What about the drug sensitivity score [7] of the same molecule?
**A.** 0

**Q.** What about the drug sensitivity score [8] of the same molecule?
**A.** 0

**Q.** And the drug sensitivity score [9]?
**A.** 0

**Q.** And the drug sensitivity score [10]?
**A.** 0

**Q.** What about the drug sensitivity score [11] of the same molecule?
**A.** 1.75

**Q.** What about the drug sensitivity score [12] of the same molecule?
**A.** 0

**Q.** And the drug sensitivity score [13]?
**A.** 0

**Q.** What about the drug sensitivity score [14] of the same molecule?
**A.** 0

**Q.** What about the drug sensitivity score [15] of the same molecule?
**A.** 0

**Q.** And the drug sensitivity score [16]?
**A.** 0

**Q.** And the drug sensitivity score [17]?
**A.** 1.25

**Q.** With CC(O)(CS(=O)(=O)c1ccc(F)cc1)C(=O)Nc1ccc(C#N)c(C(F)(F)F)c1 (stereo unspecified) [Bicalutamide] as the molecule, how does the drug sensitivity score [1] read?
**A.** 0

**Q.** And the drug sensitivity score [18]?
**A.** 0

**Q.** What about the drug sensitivity score [2] of the same molecule?
**A.** 0

**Q.** What about the drug sensitivity score [3] of the same molecule?
**A.** 0

**Q.** And the drug sensitivity score [4]?
**A.** 0

**Q.** What about the drug sensitivity score [5] of the same molecule?
**A.** 0

**Q.** And the drug sensitivity score [6]?
**A.** 0

**Q.** What about the drug sensitivity score [7] of the same molecule?
**A.** 0

**Q.** And the drug sensitivity score [8]?
**A.** 0

**Q.** And the drug sensitivity score [9]?
**A.** 0

**Q.** What about the drug sensitivity score [10] of the same molecule?
**A.** 0

**Q.** And the drug sensitivity score [11]?
**A.** 0

**Q.** What about the drug sensitivity score [12] of the same molecule?
**A.** 0

**Q.** What about the drug sensitivity score [13] of the same molecule?
**A.** 0

**Q.** What about the drug sensitivity score [14] of the same molecule?
**A.** 0

**Q.** And the drug sensitivity score [15]?
**A.** 0

**Q.** What about the drug sensitivity score [17] of the same molecule?
**A.** 0

**Q.** For CCNC(=O)CCC/C=C\C[C@@H]1[C@@H](/C=C/[C@@H](O)CCc2ccccc2)[C@H](O)C[C@@H]1O [Bimatoprost], which drug sensitivity score [1] is on record?
**A.** 0

**Q.** What about the drug sensitivity score [18] of the same molecule?
**A.** 0

**Q.** What about the drug sensitivity score [2] of the same molecule?
**A.** 0

**Q.** And the drug sensitivity score [3]?
**A.** 0

**Q.** What about the drug sensitivity score [4] of the same molecule?
**A.** 0

**Q.** What about the drug sensitivity score [5] of the same molecule?
**A.** 0

**Q.** And the drug sensitivity score [6]?
**A.** 0

**Q.** What about the drug sensitivity score [7] of the same molecule?
**A.** 0

**Q.** What about the drug sensitivity score [8] of the same molecule?
**A.** 0

**Q.** And the drug sensitivity score [9]?
**A.** 0

**Q.** And the drug sensitivity score [11]?
**A.** 2.06

**Q.** What about the drug sensitivity score [12] of the same molecule?
**A.** 0

**Q.** And the drug sensitivity score [13]?
**A.** 0

**Q.** What about the drug sensitivity score [14] of the same molecule?
**A.** 0

**Q.** And the drug sensitivity score [15]?
**A.** 0

**Q.** And the drug sensitivity score [17]?
**A.** 0

**Q.** With Cn1cc(C2=C(c3cn(C4CCN(Cc5ccccn5)CC4)c4ccccc34)C(=O)NC2=O)c2ccccc21 [Enzastaurin] as the molecule, how does the drug sensitivity score [1] read?
**A.** 0

**Q.** And the drug sensitivity score [18]?
**A.** 0

**Q.** And the drug sensitivity score [2]?
**A.** 0

**Q.** And the drug sensitivity score [3]?
**A.** 0

**Q.** What about the drug sensitivity score [4] of the same molecule?
**A.** 0

**Q.** What about the drug sensitivity score [5] of the same molecule?
**A.** 0

**Q.** And the drug sensitivity score [6]?
**A.** 0

**Q.** What about the drug sensitivity score [7] of the same molecule?
**A.** 0

**Q.** And the drug sensitivity score [8]?
**A.** 0

**Q.** And the drug sensitivity score [9]?
**A.** 0

**Q.** And the drug sensitivity score [10]?
**A.** 0

**Q.** What about the drug sensitivity score [12] of the same molecule?
**A.** 0

**Q.** And the drug sensitivity score [13]?
**A.** 0

**Q.** What about the drug sensitivity score [14] of the same molecule?
**A.** 0

**Q.** And the drug sensitivity score [15]?
**A.** 0

**Q.** What about the drug sensitivity score [16] of the same molecule?
**A.** 0

**Q.** What about the drug sensitivity score [17] of the same molecule?
**A.** 0

**Q.** Which results are given for CC(C)C[C@H](NC(=O)[C@@H](COC(C)(C)C)NC(=O)[C@H](Cc1ccc(O)cc1)NC(=O)[C@H](CO)NC(=O)[C@H](Cc1c[nH]c2ccccc12)NC(=O)[C@H](Cc1cnc[nH]1)NC(=O)[C@@H]1CCC(=O)N1)C(=O)N[C@@H](CCCNC(=N)N)C(=O)N1CCC[C@H]1C(=O)NNC(N)=O [Goserelin]?
**A.** drug sensitivity score [1]: 0.105; drug sensitivity score [18]: 0; drug sensitivity score [2]: 0; drug sensitivity score [3]: 0; drug sensitivity score [4]: 0; drug sensitivity score [5]: 0; drug sensitivity score [6]: 0; drug sensitivity score [7]: 0; drug sensitivity score [8]: 0; drug sensitivity score [9]: 0; drug sensitivity score [10]: 0.917; drug sensitivity score [11]: 1.59; drug sensitivity score [12]: 0; drug sensitivity score [13]: 0; drug sensitivity score [14]: 0; drug sensitivity score [15]: 0; drug sensitivity score [16]: 0
